Results from patent US20170114329A1, “SCALABLE ORGANOTYPIC MODELS OF TUMOR DORMANCY” (THE REGENTS OF THE UNIVERSITY OF CALIFORNIA, priority 2013, published 2017).
“Also recorded” adds a separate entry of the source.

Key:
Format in all cases: cell-based, human
[1] = test system: Notch1; test: Notch1 knockdown in E4ORF1-HUVEC, immunoblot; details: normalized to Lamin A/C
From the text: E4ORF1-HUVECs were infected at 5 MOI with custom-made lentiviruses (Sigma) containing shRNA targeting human Notch1 in a pLKO.1-puro-CMV-TagRFP vector. Empty vector was used as a control (shCtrl). Sequences for shRNA were as follows:
shNotch1-E4-ECs and shCtrl-E4-ECs were lysed in 2% SDS/PBS. Twenty μg of each lysate was then separated on a Tris-Glycine 4-20% gel. Notch1 was probed with a rabbit polyclonal antibody (AbCam ab27526, 1:500). The blot was stripped and re-probed with a rabbit polyclonal antibody to the nuclear membrane protein Lamin A/C, used here as a loading control (Santa Cruz Biotechnology sc-20681, 1:2000).

[2] = test system: E4-EC microvascular networks; test: Neovascular tip number in microvascular niche cultures; details: shNotch1 E4-EC vs shCtrl, day 7
Procedure: (§1) Microvascular niche cultures were generated with modifications to a previously described protocol, described in Evensen, L., et al. Mural cell associated VEGF is required for organotypic vessel formation. PLoS One 4, e5798 (2009), hereby incorporated by reference in its entirety. LFs or MSCs were seeded alone at a density of 5×10^4 cells/well in 96-well culture plates or with mCherry-E4-ECs at a 5:1 ratio to generate lung-like or BoMa-like microvascular niches, respectively. Cells were suspended in EGM-2 at a concentration 5×10^4 cells/100 μl (stroma only) or 6×10^4 cells/100 μl (stroma+ECs). After depositing 100 μl of cellular suspension per well of a 96-well plate, plates were left undisturbed on a flat surface for 20 min to allow even cell seeding prior to incubation.
Network properties were counted manually using the “cell counter” application in ImageJ.
E4ORF1-HUVECs were infected at 5 MOI with custom-made lentiviruses (Sigma) containing shRNA targeting human Notch1 in a pLKO.1-puro-CMV-TagRFP vector. Empty vector was used as a control (shCtrl).

[3] = test system: T4-2 cells; test: Growth of YFP T4-2 breast cancer cells on lung stroma (LF) cultures; details: add-back to T4-2 cells plated on lung stroma without ECs; normalized to vehicle condition
Procedure: as §1
After 7 days, YFP tumor cells were suspended in unsupplemented DMEM/F12 (800 cells/ml). YFP tumor cells were seeded (100 μl/well) after washing cultures thrice with PBS. […]
A macro was written using NIH ImageJ open source software to remove bias from data quantification. […] The total area fraction of the 6×6 tiled image occupied by YFP cells was then calculated. […] For each image, the measured area fraction at day 10 was normalized by the corresponding day 0 value in order to account for any small variations in seeding density from well-to-well.

Substance: sh8393: shRNA targeting human Notch1, SEQ ID NO: 1, in pLKO.1-puro-CMV-TagRFP lentiviral vector (CCGGCTTTGTTTCAGGTTCAGTATTCTCGAGAATACTGAACCTGAAACAAAGTTTTT)
- endothelial cell Notch1 expression at the protein level [1]: significantly reduced endothelial cell Notch1 expression
- number of endothelial tips [2]: significant reduction in the number of endothelial tips

Substance: thrombospondin-1 [TSP-1]
- tumor cell growth (normalized tumor cell area fraction) [3]: significant reduction in tumor cell growth; also recorded: sufficient to suppress BCC growth on lung stroma
